Experimental data as given in patent US11028095B2, “Spiro-lactam and bis-spiro-lactam NMDA receptor modulators and uses thereof” (Aptinyx Inc., priority 2016, dated 2021).
pEC50: −log10 of the molar value. Where two headings read alike, the source gives them in different places.

Key:
Assay type in all cases: biochemical
[1] = biological target: T1, NMDAR2A expressing HEK cell membranes (Homo sapiens, UniProt Q05586+Q12879); assay: NMDAR agonist assay, [3H]MK-801 binding, NMDAR2A; details: [3H]MK-801 binding; for pEC50: NMDAR2A: log EC50, 50 μM glutamate; for EC50: 50 μM glutamate, read-out: NMDAR2A: log EC50 (converted)
T1 construct: expressed in transfected cells; host or cells: HEK cells (membrane extract)
Method: (§1) (nonequilibrium conditions).
(§2) The baseline value was determined from the best fit curve of the DPM values modeled using the GraphPad program and the log(agonist) vs. response(three parameters) algorithm was then subtracted from all points in the dataset.

[2] = biological target: T2, NMDAR2A expressing HEK cell membranes (Homo sapiens, UniProt Q12879); assay: NMDAR agonist assay, [3H]MK-801 binding, NMDAR2A; details: 50 μM glutamate; for EC50: [3H]MK-801 binding, read-out: NMDAR2A: log EC50 (converted)
T2 construct: expressed in transfected cells; host or cells: HEK cells (membrane extract)
Method: as §1, §2

[3] = biological target: T3, NMDAR2B expressing HEK cell membranes (Homo sapiens, UniProt Q05586+Q13224); assay: NMDAR agonist assay, [3H]MK-801 binding, NMDAR2B; details: [3H]MK-801 binding; for pEC50: NMDAR2B: log EC50, 50 μM glutamate; for EC50: 50 μM glutamate, read-out: NMDAR2B log EC50 (converted)
T3 construct: expressed in transfected cells; host or cells: HEK cells (membrane extract)
Method: as §1, §2

[4] = biological target: T4, NMDAR2B expressing HEK cell membranes (Homo sapiens, UniProt Q13224); assay: NMDAR agonist assay, [3H]MK-801 binding, NMDAR2B; details: 50 μM glutamate; for EC50: [3H]MK-801 binding, read-out: NMDAR2B log EC50 (converted)
T4 construct: expressed in transfected cells; host or cells: HEK cells (membrane extract)
Method: as §1, §2

T3 sequence (Q13224 27-1484, other chains not shown): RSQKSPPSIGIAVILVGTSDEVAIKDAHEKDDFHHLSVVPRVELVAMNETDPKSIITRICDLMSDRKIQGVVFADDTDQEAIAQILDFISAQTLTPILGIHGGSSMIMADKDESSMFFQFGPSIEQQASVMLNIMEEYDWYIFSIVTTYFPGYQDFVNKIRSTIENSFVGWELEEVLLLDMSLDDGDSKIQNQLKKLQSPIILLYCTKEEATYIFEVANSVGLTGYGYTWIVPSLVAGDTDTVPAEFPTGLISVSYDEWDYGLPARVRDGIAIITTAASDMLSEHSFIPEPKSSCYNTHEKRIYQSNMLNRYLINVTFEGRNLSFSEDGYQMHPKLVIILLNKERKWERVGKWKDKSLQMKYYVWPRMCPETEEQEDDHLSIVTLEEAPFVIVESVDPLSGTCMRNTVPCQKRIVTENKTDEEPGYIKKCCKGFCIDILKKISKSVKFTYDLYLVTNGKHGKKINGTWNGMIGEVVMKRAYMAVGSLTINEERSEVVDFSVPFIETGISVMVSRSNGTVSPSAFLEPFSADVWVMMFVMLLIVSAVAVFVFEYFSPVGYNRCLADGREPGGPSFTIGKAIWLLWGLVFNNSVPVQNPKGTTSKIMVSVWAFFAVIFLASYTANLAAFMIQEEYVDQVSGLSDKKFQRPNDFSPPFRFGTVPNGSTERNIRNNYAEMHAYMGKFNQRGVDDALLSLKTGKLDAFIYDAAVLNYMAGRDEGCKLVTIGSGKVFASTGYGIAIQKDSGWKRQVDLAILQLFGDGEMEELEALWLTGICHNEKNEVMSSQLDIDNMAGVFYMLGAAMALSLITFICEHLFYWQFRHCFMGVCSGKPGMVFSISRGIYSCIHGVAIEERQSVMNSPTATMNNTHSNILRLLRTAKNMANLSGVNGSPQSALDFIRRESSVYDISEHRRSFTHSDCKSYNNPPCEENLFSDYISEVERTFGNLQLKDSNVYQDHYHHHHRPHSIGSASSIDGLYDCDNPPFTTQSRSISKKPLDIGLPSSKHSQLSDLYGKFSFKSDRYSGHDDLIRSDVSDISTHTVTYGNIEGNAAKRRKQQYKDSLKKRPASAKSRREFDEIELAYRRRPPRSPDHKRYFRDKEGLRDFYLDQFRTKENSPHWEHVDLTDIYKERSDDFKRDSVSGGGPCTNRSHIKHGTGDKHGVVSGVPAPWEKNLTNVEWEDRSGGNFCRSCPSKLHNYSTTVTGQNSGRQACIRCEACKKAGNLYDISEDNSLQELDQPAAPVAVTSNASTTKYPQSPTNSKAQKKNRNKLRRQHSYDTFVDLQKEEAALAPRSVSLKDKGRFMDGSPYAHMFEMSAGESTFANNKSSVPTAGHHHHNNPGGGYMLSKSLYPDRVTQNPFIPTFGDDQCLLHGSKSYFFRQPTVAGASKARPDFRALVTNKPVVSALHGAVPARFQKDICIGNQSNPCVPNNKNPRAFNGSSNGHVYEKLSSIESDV
T4 sequence (Q13224 27-1484, other chains not shown): as above
T2 sequence (Q12879 23-1464, other chains not shown): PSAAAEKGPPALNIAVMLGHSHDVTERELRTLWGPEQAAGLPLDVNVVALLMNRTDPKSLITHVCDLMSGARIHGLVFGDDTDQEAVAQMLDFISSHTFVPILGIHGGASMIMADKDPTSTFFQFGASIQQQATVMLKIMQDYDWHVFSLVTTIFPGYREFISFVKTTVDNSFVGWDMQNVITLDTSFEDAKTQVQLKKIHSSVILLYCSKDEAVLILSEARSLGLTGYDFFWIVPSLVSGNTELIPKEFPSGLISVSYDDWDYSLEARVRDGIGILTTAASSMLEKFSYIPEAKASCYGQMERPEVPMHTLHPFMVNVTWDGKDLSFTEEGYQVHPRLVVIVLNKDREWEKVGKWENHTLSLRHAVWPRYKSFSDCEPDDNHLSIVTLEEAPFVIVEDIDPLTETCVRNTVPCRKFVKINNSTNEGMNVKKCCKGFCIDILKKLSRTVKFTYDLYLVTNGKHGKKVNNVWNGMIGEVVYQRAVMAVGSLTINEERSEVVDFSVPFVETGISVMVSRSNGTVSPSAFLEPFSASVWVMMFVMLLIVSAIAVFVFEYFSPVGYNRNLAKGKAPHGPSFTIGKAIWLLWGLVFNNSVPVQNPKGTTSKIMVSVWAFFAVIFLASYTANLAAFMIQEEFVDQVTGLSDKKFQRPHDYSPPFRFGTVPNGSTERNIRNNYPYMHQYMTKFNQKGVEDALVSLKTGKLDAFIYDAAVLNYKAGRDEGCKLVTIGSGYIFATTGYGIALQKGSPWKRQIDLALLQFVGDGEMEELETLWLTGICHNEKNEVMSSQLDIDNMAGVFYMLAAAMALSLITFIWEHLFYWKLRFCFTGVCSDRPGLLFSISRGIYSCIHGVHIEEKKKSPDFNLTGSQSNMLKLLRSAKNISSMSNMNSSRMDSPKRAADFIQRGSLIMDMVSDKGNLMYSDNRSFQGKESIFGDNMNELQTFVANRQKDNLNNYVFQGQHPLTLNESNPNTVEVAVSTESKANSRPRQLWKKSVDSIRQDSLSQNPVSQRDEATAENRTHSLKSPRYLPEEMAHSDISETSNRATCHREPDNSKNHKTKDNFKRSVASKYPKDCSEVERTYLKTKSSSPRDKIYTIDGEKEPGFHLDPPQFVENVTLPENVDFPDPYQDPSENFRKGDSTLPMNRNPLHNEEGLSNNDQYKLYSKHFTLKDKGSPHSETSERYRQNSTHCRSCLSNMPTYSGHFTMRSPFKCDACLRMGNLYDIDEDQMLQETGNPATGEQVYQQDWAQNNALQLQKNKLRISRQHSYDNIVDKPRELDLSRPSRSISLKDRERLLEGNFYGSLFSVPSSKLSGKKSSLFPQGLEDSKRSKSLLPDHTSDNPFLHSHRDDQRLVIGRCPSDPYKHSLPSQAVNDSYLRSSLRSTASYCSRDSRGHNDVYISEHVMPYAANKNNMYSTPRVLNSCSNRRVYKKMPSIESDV

Row | Structure (SMILES) | pEC50 [1] | NMDAR2A: % maximal [3H]MK-801 binding relative to 1 mM glycine [2] | pEC50 [3] | NMDAR2B: % maximal [3H]MK-801 binding relative to 1 mM glycine [4] | EC50 [2] | EC50 [3] | EC50 [1] | EC50 [4]
1 | CN1C2(CCC13CNC3=O)CNC2=O (single isomer, unassigned) [AB-1, 5-methyl-2,5,8-triazadispiro[3.1.36.24]undecane-1,7-dione] | > 9.00 | + (<100%=+) | < 7.00 | − (−=0) |  |  |  | 
2 | CC(C)C(=O)N1C2(CCC13CNC3=O)CNC2=O (single isomer, unassigned) [AI, 5-isobutyryl-2,5,8-triazadispiro[3.1.36.24]undecane-1,7-dione] |  | + (<100%=+) |  | − (−=0) | < 1 nM | > 100 nM |  | 
3 | O=C1NCC12CCC1(CNC1=O)N2 (single isomer, unassigned) [AK, 2,5,8-triazadispiro[3.1.36.24]undecane-1,7-dione] | < 7.00 | − (−=0) | < 7.00 | − (−=0) |  |  |  | 
4 | C[C@@H](O)[C@H](NC(=O)C1CCC2(CNC2=O)N1Cc1ccccc1)C(N)=O (single isomer, unassigned) [AL-2] |  | + (<100%=+) |  | − (−=0) |  | > 100 nM |  | 
5 | CC(C)C(=O)N1C(C(=O)N[C@H](C(N)=O)[C@@H](C)O)CCC12CNC2=O (single isomer, unassigned) [AR] |  | − (−=0) |  | − (−=0) |  | > 100 nM | > 100 nM | 
6 | CC(C)(C)OC(=O)N1CC2(CN(OCc3ccccc3)C2=O)CC12CN(OCc1ccccc1)C2=O (single isomer, unassigned) [AV, tert-butyl 2,8-bis(benzyloxy)-1,7-dioxo-2,8,10-triazadispiro[3.1.36.24]undecane-10-carboxylate] |  | − (−=0) |  | + (<100%=+) |  | < 1 nM | > 100 nM | 
7 | CC(C)(C)OC(=O)N1CC2(CN(OCc3ccccc3)C2=O)CC12CN(OCc1ccccc1)C2=O (single isomer, unassigned) [AX, tert-butyl 2,8-bis(benzyloxy)-1,7-dioxo-2,8,10-triazadispiro[3.1.36.24]undecane-10-carboxylate] |  | + (<100%=+) |  | − (−=0) |  | > 100 nM | < 1 nM | 
8 | CC(C)CN1C(C(=O)N[C@H](C(N)=O)[C@@H](C)O)CCC12CNC2=O (single isomer, unassigned) [BB] |  | + (<100%=+) |  | + (<100%=+) |  | < 1 nM |  | 
9 | C[C@@H](O)[C@H](NC(=O)C1CCC2(CNC2=O)N1C)C(N)=O (single isomer, unassigned) [BD] |  | + (<100%=+) |  | + (<100%=+) |  |  | < 1 nM | < 1 nM
10 | CC(C)(C)OC(=O)N1C(C(N)=O)CCC12CNC2=O (single isomer, unassigned) [BF] |  | + (<100%=+) |  | + (<100%=+) |  | < 1 nM | < 1 nM | 
11 | C[C@@H](O)[C@H](NCC1CCC2(CN(OCc3ccccc3)C2=O)N1C(=O)OC(C)(C)C)C(=O)N(C)C (single isomer, unassigned) [BR] |  | + (<100%=+) |  | ++ (>100%=++) |  |  | < 1 nM | 
12 | C[C@@H](O)[C@H](NCC1CCC2(CNC2=O)N1C(=O)OC(C)(C)C)C(=O)N(C)C (single isomer, unassigned) [BS] |  | − (−=0) |  | + (<100%=+) |  | < 1 nM | > 100 nM | 
13 | C[C@@H](O)[C@H](NC1CN(C(=O)OC(C)(C)C)C2(CNC2=O)C1)C(N)=O (single isomer, unassigned) [CH] |  | − (−=0) |  | − (−=0) |  |  | > 100 nM | > 100 nM
14 | CC(O)C(NCC1CCC2(CN(OCc3ccccc3)C2=O)N1)C(N)=O (single isomer, unassigned) [CL] |  | + (<100%=+) |  | + (<100%=+) |  |  | < 1 nM | < 1 nM
15 | CNC(=O)C(NCC1CCC2(CNC2=O)N1)C(C)O (single isomer, unassigned) [CR] |  | + (<100%=+) |  | ++ (>100%=++) |  |  | < 1 nM | < 1 nM
16 | CC(O)C(C(N)=O)N(C)CC1CCC2(CN(OCc3ccccc3)C2=O)N1 (single isomer, unassigned) [CS] |  | − (−=0) |  | + (<100%=+) |  |  | > 100 nM | < 1 nM
17 | CNC(=O)C(C(C)O)N(C)CC1CCC2(CN(OCc3ccccc3)C2=O)N1 (single isomer, unassigned) [CX] |  | + (<100%=+) |  | ++ (>100%=++) | < 1 nM |  |  | < 1 nM
18 | CC(C)CN1C(C(N)=O)CCC12CNC2=O (single isomer, unassigned) [DD, 5-isobutyl-1-oxo-2,5-diazaspiro[3.4]octane-6-carboxamide] |  | + (<100%=+) |  | + (<100%=+) | < 1 nM |  |  | < 1 nM
19 | NC(=O)C1CCC2(CNC2=O)N1Cc1ccccc1 (single isomer, unassigned) [DF, 5-benzyl-1-oxo-2,5-diazaspiro[3.4]octane-6-carboxamide] |  |  |  |  | < 1 nM |  |  | < 1 nM
20 | NC(=O)C1CCC2(CNC2=O)N1Cc1ccc(F)cc1 (single isomer, unassigned) [DH, 5-(4-fluorobenzyl)-1-oxo-2,5-diazaspiro[3.4]octane-6-carboxamide] |  | + (<100%=+) |  | ++ (>100%=++) | < 1 nM | < 1 nM |  | 
21 | O=C1NCC12CN(Cc1ccc(F)cc1)C1(CNC1=O)C2 (single isomer, unassigned) [DL, 10-(4-fluorobenzyl)-2,8,10-triazadispiro[3.1.3^6.2^4]undecane-1,7-dione] |  | − (−=0) |  | + (<100%=+) |  |  | > 100 nM | < 1 nM
22 | O=C1NCC12CN(Cc1ccc(F)cc1)C1(CNC1=O)C2 (single isomer, unassigned) [DM, 10-(4-fluorobenzyl)-2,8,10-triazadispiro[3.1.3^6.2^4]undecane-1,7-dione] |  | + (<100%=+) |  | + (<100%=+) |  |  | < 1 nM | < 1 nM
23 | O=C1NCC12CN(Cc1ccc(F)cc1)C1(CNC1=O)C2 (single isomer, unassigned) [DN, 10-(4-fluorobenzyl)-2,8,10-triazadispiro[3.1.3^6.2^4]undecane-1,7-dione] |  | + (<100%=+) |  | + (<100%=+) |  |  | < 1 nM | < 1 nM
